Measured values published in patent publication US12419847B2, “Composition and method for attenuating neuroinflammation, amyloidopathy and tauopathy” (Trustees of Dartmouth College, priority 2020, dated 2025).

Experiments:
[1] = biological target: mouse ACAT1 (Mus musculus (Mouse), UniProt Q61263); assay: ACAT1 protein by western blot in microRNA-transfected NIH-3T3 mouse fibroblasts; format: cell-based; conditions: for Relative Intensity (ACAT1 normalized to GAPDH): NIH-3T3, GFP-positive cells, 48 hours post-transfection; for reduction in ACAT1 protein content: mouse 3T3 fibroblasts, cDNA transfection
Text: NIH-3T3 mouse fibroblasts were transiently transfected with one of several rAAV vectors encoding EmGFP and microRNA (miR) #52, #53, #54 or #55. Forty-eight hours post-transfection, GFP-positive cells were harvested by FACS. GFP-positive cells were washed then lysed in 10% SDS and syringe homogenized. Twenty microgram of protein per sample was subjected to SDS-PAGE. After western blot analysis, bands were quantified with ImageJ. ACAT1 intensity was normalized to GAPDH as a loading control and expressed as relative intensity.
Four different siRNA molecules (#52-#55; Table 3) targeting the mouse Acat1 gene were inserted into an endogenous mouse microRNA (miR) scaffold using Invitrogen's RNAi design tool. The artificial miRs were ligated into the mammalian expression vector pcDNA6.2-GW/EmGFP-miR. […] The miRs were delivered to the cells using a standard cDNA transfection protocol.

[2] = system: amyloidopathy; conditions: in vivo; cited from earlier work
[3] = system: N9 microglial cells; assay: inflammatory responses to LPS in N9 microglial cells (qPCR, IκB-α western blot); format: cell-based, mouse; conditions: 0.5 μM for 4 hours, then LPS 10-1000 ng/mL
Protocol: Six hours later, mRNA was extracted, and qPCR was performed to monitor pro-inflammatory (FIG. 4A) or anti-inflammatory (FIG. 4B) gene expression. […] Thirty minutes later, proteins were extracted for western blot analysis for total IκB-α, and for phosphorylated […]<0.01.

[4] = system: IL-4Rα; assay: IL-4Rα expression in N9 microglial cells (immunoblot)
Protocol: Cells were harvested for immunoblot analysis for IL-4Rα. Vinculin was the loading control. Data expressed as mean+/− SEM, * p<0.05, ** p<0.01.
IL-4Rα expression was determined by convention methods. 25 μg/mL cholesterol equals 38 μg/mL total myelin debris protein. Data are expressed as mean±SEM. *P<0.05; **P<0.01.

[5] = system: ABCA1; assay: ABCA1 protein content in human myelin debris-treated HMC3 cells; format: cell-based; conditions: HMC3, human myelin debris 25 μg/mL cholesterol, 0.5 μM, 24 hours
Protocol: […]. Afterward, cells were harvested for western blot analyses. Lysates of HEK293 cells and lysates of HMC3 cells treated with 10 μM LXR agonist T0901317 for 24 hours were respectively used as negative and positive controls for ABCA1 signals. […] Data are expressed as mean±SEM.
Subsequently, myelin debris from human brains was prepared and it was observed that the cholesterol/protein ratio, as well as the protein composition between mouse myelin debris and human myelin debris, were very similar. […]

[6] = in vivo; cited from earlier work
[7] = system: IL-4Rα; assay: IL-4Rα protein content in HMC3 cells (western blot); format: cell-based, human; conditions: for IL-4Rα protein content: human myelin debris-treated HMC3 cells, co-incubation
Protocol: . Exp. 130:56322) for 21 hours.
. […] Protein was isolated and analyzed by western blot analysis. Vinculin was the loading control. […]; **P<0.01.
Subsequently, myelin debris from human brains was prepared and it was observed that the cholesterol/protein ratio, as well as the protein composition between mouse myelin debris and human myelin debris, were very similar.

[8] = biological target: T1, ACAT2 (Homo sapiens (Human), UniProt O75908); conditions: cited from earlier work
[9] = biological target: T1, ACAT2; conditions: cited from earlier work; remark: listed apart in the source
[10] = mice, orally administered; cited from earlier work
[11] = system: primary cortical neurons; assay: Lactate dehydrogenase (LDH) toxicity assay
Protocol: Cells were incubated in enriched neurobasal (NB) medium (Thermo Fisher Scientific, Waltham, MA) (500 mL NB media, 200 mM L-glutamine, B-27 with vitamin A, 1 mL penicillin-streptomycin (1%), and 340 mg glucose). Neurons were allowed to grow processes for 4-6 days prior to treatment.
Lactate Dehydrogenase (LDH) Toxicity Assay. Primary cortical neurons were harvested and maintained as described above. […] After treatment, the conditioned media from the cells were collected, spun at 12,000 rpm for 30 minutes to remove cellular debris, supernatant transferred to new tube, and frozen at −80° C. until time of assay. Using Cytotoxicity Detection Kit (LDH) (Roche), media and reaction mixture were mixed, incubated for 30 minutes at room temperature protected from light, and the absorbance was measured at 490 nm.

[12] = system: ACAT; assay: ACAT enzyme activity in mouse tissue homogenates after IV injection of nanoparticles; format: in vivo; conditions: delivered IV in nanoparticles
Protocol: A1^−/− refers to Acat1^−/− mouse. ACAT activity was determined by using a mixed liposome assay. N=4 for WT mice age (2-3 months) and gender matched. N=1 for A1^−/− mouse. N.S., not significant; P<0.05*, P<0.01**, P<0.001***. Analysis by two-way ANOVA. The significance is relative to vehicle-treated group.
A1^−/− refers to Acat1^−/− mouse. Note, the major isoenzyme in mouse liver is ACAT2. ACAT activity was determined without or with perfusion as indicated. N=3-4 for WT mice age- and gender-matched. N=1 for A1^−/− mouse. N.S., not significant; P<0.05*, P<0.01**, P<0.001***. Two-way ANOVA. The significance is relative to vehicle-treated group.
Mice were perfused before brains were isolated. N=2-3 WT mice/group. N=1 A1^−/− mouse. Statistical analysis, 2-way ANOVA. *P<0.05; **P<0.01; ***P<0.001.
As a component of the above-referenced analysis, a portion of the mice were treated with perfusion (to remove blood contamination from tissues).

[13] = biological target: T2, ACAT1 (Homo sapiens (Human), UniProt P35610); assay: human ACAT1 IC50 by mixed liposome assay
Protocol: In vitro Mixed Liposomal ACAT Activity Assay. […] Lysed cells were collected and aliquoted into pre-chilled tubes containing the liposomal mixture of taurocholate, phosphatidylcholine, and cholesterol. Tubes were vortexed and kept on ice for 5 minutes. Samples were then incubated in a 37° C. shaking water bath with ^3H-oleoyl CoA added for 10 minutes. The assay was stopped by adding CHCl3:MeOH (2:1). Lipids were extracted and analyzed by the same TLC method described herein.

[14] = biological target: T2, ACAT1; conditions: cited from earlier work

T1 sequence (O75908 whole entry): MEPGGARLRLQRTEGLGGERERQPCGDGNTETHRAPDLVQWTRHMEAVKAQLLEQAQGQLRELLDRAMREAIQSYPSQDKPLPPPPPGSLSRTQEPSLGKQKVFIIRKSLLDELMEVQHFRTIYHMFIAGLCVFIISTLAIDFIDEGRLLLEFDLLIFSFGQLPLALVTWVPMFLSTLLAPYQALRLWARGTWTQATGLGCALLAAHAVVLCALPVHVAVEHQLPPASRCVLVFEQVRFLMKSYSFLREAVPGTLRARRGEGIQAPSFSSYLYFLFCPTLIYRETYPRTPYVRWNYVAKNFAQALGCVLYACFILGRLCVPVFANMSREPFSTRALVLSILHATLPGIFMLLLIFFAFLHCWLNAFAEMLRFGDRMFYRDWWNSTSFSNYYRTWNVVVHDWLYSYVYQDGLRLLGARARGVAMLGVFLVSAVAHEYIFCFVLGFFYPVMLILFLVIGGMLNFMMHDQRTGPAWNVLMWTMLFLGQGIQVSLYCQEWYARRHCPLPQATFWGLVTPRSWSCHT
T2 sequence (P35610 whole entry): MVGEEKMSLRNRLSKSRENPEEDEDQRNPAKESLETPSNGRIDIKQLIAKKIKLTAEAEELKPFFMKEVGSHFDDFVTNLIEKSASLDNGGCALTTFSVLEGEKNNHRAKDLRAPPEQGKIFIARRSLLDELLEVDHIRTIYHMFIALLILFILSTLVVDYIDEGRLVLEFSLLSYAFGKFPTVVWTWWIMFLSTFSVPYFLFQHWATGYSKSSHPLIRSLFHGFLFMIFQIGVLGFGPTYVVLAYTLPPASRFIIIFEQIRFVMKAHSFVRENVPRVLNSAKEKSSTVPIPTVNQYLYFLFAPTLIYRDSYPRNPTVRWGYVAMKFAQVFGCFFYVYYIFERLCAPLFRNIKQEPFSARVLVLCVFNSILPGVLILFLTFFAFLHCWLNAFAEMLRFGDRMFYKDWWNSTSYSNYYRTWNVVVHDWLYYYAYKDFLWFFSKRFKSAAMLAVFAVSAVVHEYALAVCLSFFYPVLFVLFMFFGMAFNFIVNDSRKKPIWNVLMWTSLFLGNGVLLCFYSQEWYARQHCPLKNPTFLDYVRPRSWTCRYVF

With “miR #53: artificial microRNA targeting mouse ACAT1 sequence CTGTTTGAAGTGGACCACATCA (SEQ ID NO:2) (expressed or natural sequence; the letters are possibly those of the target site)” the “Relative Intensity (ACAT1 normalized to GAPDH)” value [1] was 0.56.

In the case of `CC(C)c1cc(C(C)C)c(CC(=O)NS(=O)(=O)Oc2c(C(C)C)cccc2C(C)C)c(C(C)C)c1` [CI 1011], the “amyloidopathy in a mouse model for AD” value [2] is listed as “reduce amyloidopathy”.

In the case of `CCCCCCCC[C@H](SCCCCCC)C(=O)Nc1c(SC)cc(C)nc1SC` [CP113,818], the “amyloidopathy in a mouse model for AD” value [2] is given as “reduce amyloidopathy and rescue cognitive deficits”.

With “miR #55: artificial microRNA targeting mouse ACAT1 sequence AACTACCCAAGGACTCCTACTGTA (SEQ ID NO:4) (expressed or natural sequence; the letters are possibly those of the target site)” the “Relative Intensity (ACAT1 normalized to GAPDH)” value [1] was 0.39 and the “reduction in ACAT1 protein content” value [1] was 50-60%.

With `CSc1cc(C)nc(SC)c1NC(=O)CN1CCN(CCSc2nc3ccccc3[nH]2)CC1` [Analog K-604, 2-[4-[2-(benzimidazol-2-ylthio)ethyl]piperazin-1yl]-N-[2,4-bis(methylthio)-6-methyl-3-pyridyl]acetamide] the “inflammatory responses to LPS” value [3] was “attenuates inflammatory responses to LPS”, the “expression of the receptor IL-4Rα” value ([4]; 0.5 μM for 4 or 12 hours) was “increases expression of the receptor IL-4Rα” and the “enhancing effect on IL4R-α with myelin debris” value ([4]; mouse myelin debris, 21 hours) was “more robust”. For the same compound, the ABCA1 protein content [5] was “increased significantly”, the clinical safety [6] was “passed phase I clinical safety tests” and the “enhancing effect on IL4R-α with myelin debris” value ([7]; HMC3 cells, mouse myelin debris, 21 hours) was “more robust”. The IL-4Rα protein content [7] was “IL-4Rα protein content increases”.

In the case of “miR Negative Control: negative control miR (SEQ ID NO:9) which does not match any known vertebrate gene (TACTGCGCGTGGAGACG)”, the “Relative Intensity (ACAT1 normalized to GAPDH)” value [1] is reported as 1.02.

In the case of “miR #52: artificial microRNA targeting mouse ACAT1 sequence GGAGCTGAAGCCACTATTTAT (SEQ ID NO:1) (expressed or natural sequence; the letters are possibly those of the target site)”, the “Relative Intensity (ACAT1 normalized to GAPDH)” value [1] is reported as 0.77.

For saucerneol B, the IC50 ([8]; Lee et al. 2004, read-out: IC50 hACAT-2) is listed as 124000 nM.

In the case of `CCCCCCCCCCCCS[C@H](C(=O)Nc1cc(C)c(O)c(C)c1C)c1ccccc1` [Analog F12511], the Ki [9] is listed as 110 nM, the “half-life in the blood” value [10] is listed as 1 to 2 h and the “cellular toxicity (LDH leakage)” value ([11]; 24 hours, 2 μM to 100 μM) is listed as “minimal, if any, toxicity”. For the same compound, the “cellular toxicity (LDH leakage)” value ([11]; 48 hours, very high concentrations (near 100 μM)) was “slight increase in toxicity”, the “cellular toxicity (LDH leakage)” value ([11]; 72 hours, 10 μM) was “only very minimal toxicity” and the “cellular toxicity (LDH leakage)” value ([11]; 72 hours, high concentration (near 100 μM)) was “more toxicity was detected”. The ABCA1 protein content [5] was “increased significantly”, the brain permeability [12] was “permeable to the brain” and the clinical safety [6] was “passed phase I clinical safety tests”. For the same compound, the IL-4Rα protein content [7] was “IL-4Rα protein content increases”.

With `CCCCCCCCCCCCS(=O)(=O)[C@](F)(C(=O)Nc1cc(C)c(O)c(C)c1C)c1ccccc1` [Analog F26] the IC50 [13] was 13 nM, the “potency relative to F12511” value [13] was roughly 3 times and the brain permeability [12] was “brain permeable”.

With “miR #54: artificial microRNA targeting mouse ACAT1 sequence CCCGGTTCATTCTGATACTGGA (SEQ ID NO:3) (expressed or natural sequence; target site or template, no part of the molecule)” the “Relative Intensity (ACAT1 normalized to GAPDH)” value [1] was 0.54 and the “reduction in ACAT1 protein content” value [1] was 50-60%.

In the case of `CCOC(=O)OC(=O)OCC` [diethyl pyrocarbonate], the “fold lower IC50 / greater activity for ACAT1 than for ACAT2” value [14] is given as 4 fold.

For `COc1ccc([C@@H](O)[C@@H](C)Oc2ccc([C@H]3O[C@H](c4ccc(O[C@H](C)[C@H](O)c5ccc6c(c5)OCO6)c(OC)c4)[C@H](C)[C@H]3C)cc2OC)cc1OC` [manassantin B], the “inhibition of hACAT-2” value ([8]; at 1 mM) is listed as 32%.
